Data reported in patent US10781211B2, “Spirocycle compounds and methods of making and using same” (Lundbeck La Jolla Research Center, Inc., priority 2016, dated 2020).

Legend:
Type in all cases: in vivo
Settings in all cases: 5 mg/kg oral gavage
MAGL = MAGL (Mus musculus (Mouse), UniProt O35678); assay: Mouse brain proteomes from inhibitor treated mice (oral gavage, sacrifice 4 h after administration, ABPP analysis)
Procedure: (§1) Preparation of Mouse Brain Proteomes from Inhibitor Treated Mice.
(§2) Inhibitors were administered to wild-type C57Bl/6J by oral gavage in a vehicle, e.g. PEG400/Ethanol/PBS (7/2/1). Each animal was sacrificed 4 h following administration and brain proteomes were prepared and analyzed according to previously established methods (See Niphakis, M. J., et al. (2011) ACS Chem. Neurosci. and Long, J. Z., et al. Nat. Chem. Biol. 5:37-44). Data from this assay is shown in Table 2 (% inhibition at 5 mg/kg).

FAAH = FAAH (Mus musculus (Mouse), UniProt O08914); assay: Mouse brain proteomes from inhibitor treated mice (oral gavage, sacrifice 4 h after administration, ABPP analysis), FAAH
Sequence of FAAH (O08914 whole entry): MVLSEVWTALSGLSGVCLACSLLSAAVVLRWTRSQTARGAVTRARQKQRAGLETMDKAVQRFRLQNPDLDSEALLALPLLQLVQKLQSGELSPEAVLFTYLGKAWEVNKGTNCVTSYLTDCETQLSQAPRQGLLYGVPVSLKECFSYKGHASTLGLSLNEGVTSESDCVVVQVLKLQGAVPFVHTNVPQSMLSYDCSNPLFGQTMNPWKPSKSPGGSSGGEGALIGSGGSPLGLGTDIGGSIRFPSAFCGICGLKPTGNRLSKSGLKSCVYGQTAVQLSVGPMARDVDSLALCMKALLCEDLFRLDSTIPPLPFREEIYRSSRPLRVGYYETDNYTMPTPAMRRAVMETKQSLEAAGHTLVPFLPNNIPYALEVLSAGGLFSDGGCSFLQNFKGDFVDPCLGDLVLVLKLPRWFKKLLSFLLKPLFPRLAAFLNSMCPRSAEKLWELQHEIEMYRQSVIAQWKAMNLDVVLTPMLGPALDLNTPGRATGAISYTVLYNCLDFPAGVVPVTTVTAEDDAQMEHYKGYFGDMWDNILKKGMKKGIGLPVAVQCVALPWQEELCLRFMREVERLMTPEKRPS
Procedure: as §1, §2

ABHD6 = ABHD6 (Mus musculus (Mouse), UniProt Q8R2Y0); assay: Mouse brain proteomes from inhibitor treated mice (oral gavage, sacrifice 4 h after administration, ABPP analysis), ABHD6
Sequence of ABHD6 (Q8R2Y0 whole entry): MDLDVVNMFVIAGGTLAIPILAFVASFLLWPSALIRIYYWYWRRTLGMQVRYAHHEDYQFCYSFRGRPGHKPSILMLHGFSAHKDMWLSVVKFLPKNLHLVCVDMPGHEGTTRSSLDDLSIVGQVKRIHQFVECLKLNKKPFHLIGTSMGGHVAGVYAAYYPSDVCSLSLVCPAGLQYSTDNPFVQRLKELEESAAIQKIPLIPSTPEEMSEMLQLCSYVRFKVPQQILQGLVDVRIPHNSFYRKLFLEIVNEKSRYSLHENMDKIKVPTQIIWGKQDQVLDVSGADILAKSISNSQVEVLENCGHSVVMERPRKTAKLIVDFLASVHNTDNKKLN
Procedure: as §1, §2

Sequence of MAGL (O35678 whole entry): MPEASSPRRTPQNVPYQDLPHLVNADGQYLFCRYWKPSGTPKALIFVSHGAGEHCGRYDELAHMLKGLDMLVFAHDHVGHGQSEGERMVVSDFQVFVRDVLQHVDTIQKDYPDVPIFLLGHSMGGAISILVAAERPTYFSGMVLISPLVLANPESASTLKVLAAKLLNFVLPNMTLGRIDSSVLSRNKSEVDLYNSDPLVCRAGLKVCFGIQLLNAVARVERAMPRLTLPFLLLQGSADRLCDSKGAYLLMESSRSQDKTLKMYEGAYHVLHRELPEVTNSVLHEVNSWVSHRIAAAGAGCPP

Structure (SMILES) | MAGL % Inh 5 mg/kg (mouse) (MAGL) | FAAH % Inh 5 mg/kg (mouse) (FAAH) | ABHD6 % Inh 5 mg/kg (mouse) (ABHD6)
CCOc1cccc(CN2CCCC23CCN(C(=O)OC(C(F)(F)F)C(F)(F)F)CC3)c1 [Example 5, 1,1,1,3,3,3-Hexafluoropropan-2-yl 1-(3-ethoxybenzyl)-1,8-diazaspiro[4.5]decane-8-carboxylate] | ### (### is ≥ 75%) | # (# is < 25%) | –
COc1ccc(F)cc1CN1CCCC12CCN(C(=O)OC(C(F)(F)F)C(F)(F)F)CC2 [Example 8, 1,1,1,3,3,3-Hexafluoropropan-2-yl 1-(5-fluoro-2-methoxybenzyl)-1,8-diazaspiro[4.5]decane-8-carboxylate] | ### (### is ≥ 75%) | – | –
O=C(OC(C(F)(F)F)C(F)(F)F)N1CCC2(CCN(Cc3ccc(Cl)cc3N3CCOCC3)C2)CC1 [Example 21, 1,1,1,3,3,3-Hexafluoropropan-2-yl 2-(4-chloro-2-morpholinobenzyl)-2,8-diazaspiro[4.5]decane-8-carboxylate] | ### (### is ≥ 75%) | # (# is < 25%) | –
O=C(OC(C(F)(F)F)C(F)(F)F)N1CCC2(CCCN2Cc2ccc(OCCF)cc2)CC1 [Example 31, 1,1,1,3,3,3-Hexafluoropropan-2-yl 1-(4-(2-fluoroethoxy)benzyl)-1,8-diazaspiro[4.5]decane-8-carboxylate] | ### (### is ≥ 75%) | # (# is < 25%) | –
CC1(C)CC2(CCN(C(=O)OC(C(F)(F)F)C(F)(F)F)CC2)CN1Cc1ccc(Cl)cc1 [Example 48, 1,1,1,3,3,3-Hexafluoropropan-2-yl 2-(4-chlorobenzyl)-3,3-dimethyl-2,8-diazaspiro[4.5]decane-8-carboxylate] | ### (### is ≥ 75%) | # (# is < 25%) | –
O=C(OC(C(F)(F)F)C(F)(F)F)N1CCC2(CCCN2Cc2ccc(Cl)cc2)CC1 [Example 62, 1,1,1,3,3,3-Hexafluoropropan-2-yl 1-(4-chlorobenzyl)-1,8-diazaspiro[4.5]decane-8-carboxylate] | ### (### is ≥ 75%) | – | –
CCN1CCCc2cccc(CN3CCC4(CCN(C(=O)OC(C(F)(F)F)C(F)(F)F)CC4)C3)c21 [Example 71, 1,1,1,3,3,3-Hexafluoropropan-2-yl 2-((1-ethyl-1,2,3,4-tetrahydroquinolin-8-yl)methyl)-2,8-diazaspiro[4.5]decane-8-carboxylate] | ### (### is ≥ 75%) | # (# is < 25%) | –
O=C(OC(C(F)(F)F)C(F)(F)F)N1CCC2(CCCN2Cc2cccc(N3CCCCC3)c2Cl)CC1 [Example 80, 1,1,1,3,3,3-Hexafluoropropan-2-yl 1-(2-chloro-3-(piperidin-1-yl)benzyl)-1,8-diazaspiro[4.5]decane-8-carboxylate] | ### (### is ≥ 75%) | – | –
O=C(O)C1CCN(c2cc(Cl)cc(CN3CCCC34CCN(C(=O)OC(C(F)(F)F)C(F)(F)F)CC4)c2)CC1 [Example 122, 1-(3-Chloro-5-((8-(((1,1,1,3,3,3-hexafluoropropan-2-yl)oxy)carbonyl)-1,8-diazaspiro[4.5]decan-1-yl)methyl)phenyl)piperidine-4-carboxylic acid] | ### (### is ≥ 75%) | – | –
O=C(O)C1CCN(c2cc(CN3CCCC34CCN(C(=O)OC(C(F)(F)F)C(F)(F)F)CC4)cc(C(F)(F)F)c2)CC1 [Example 123, 1-(3-((8-(((1,1,1,3,3,3-Hexafluoropropan-2-yl)oxy)carbonyl)-1,8-diazaspiro[4.5]decan-1-yl)methyl)-5-(trifluoromethyl)phenyl)piperidine-4-carboxylic acid] | ### (### is ≥ 75%) | # (# is < 25%) | –
O=C(OC(C(F)(F)F)C(F)(F)F)N1CCC2(CCCN2Cc2ccc3c(c2)COC3)CC1 [Example 151, 1,1,1,3,3,3-Hexafluoropropan-2-yl 1-((1,3-dihydroisobenzofuran-5-yl)methyl)-1,8-diazaspiro[4.5]decane-8-carboxylate] | ### (### is ≥ 75%) | – | –
O=C(OC(C(F)(F)F)C(F)(F)F)N1CCC2(CCCN2Cc2cc(OC3CCOCC3)cc(C(F)(F)F)c2)CC1 [Example 170, 1,1,1,3,3,3-Hexafluoropropan-2-yl 1-(3-(tetrahydro-2H-pyran-4-yloxy)-5-(trifluoromethyl)benzyl)-1,8-diazaspiro[4.5]decane-8-carboxylate] | – | # (# is < 25%) | # (# is < 25%)
O=C(OC(C(F)(F)F)C(F)(F)F)N1CCC2(CCCN2Cc2ccc(C(F)(F)F)cc2Oc2cccnc2)CC1 [Example 173, 1,1,1,3,3,3-Hexafluoropropan-2-yl 1-(2-(pyridin-3-yloxy)-4-(trifluoromethyl)benzyl)-1,8-diazaspiro[4.5]decane-8-carboxylate] | – | # (# is < 25%) | # (# is < 25%)
O=C(OC(C(F)(F)F)C(F)(F)F)N1CCC2(CCCN2Cc2cc(Oc3cccnc3)cc(C(F)(F)F)c2)CC1 [Example 174, 1,1,1,3,3,3-Hexafluoropropan-2-yl 1-(3-(pyridin-3-yloxy)-5-(trifluoromethyl)benzyl)-1,8-diazaspiro[4.5]decane-8-carboxylate] | – | # (# is < 25%) | # (# is < 25%)
O=C(OC(C(F)(F)F)C(F)(F)F)N1CCC2(CCCN2Cc2cc(OC3CCS(=O)(=O)CC3)cc(C(F)(F)F)c2)CC1 [Example 176, 1,1,1,3,3,3-Hexafluoropropan-2-yl 1-(3-((1,1-dioxidotetrahydro-2H-thiopyran-4-yl)oxy)-5-(trifluoromethyl)benzyl)-1,8-diazaspiro[4.5]decane-8-carboxylate] | – | # (# is < 25%) | # (# is < 25%)

Second part, the molecule after the results:

MAGL % Inh 5 mg/kg (mouse) (MAGL) | FAAH % Inh 5 mg/kg (mouse) (FAAH) | ABHD6 % Inh 5 mg/kg (mouse) (ABHD6) | Structure (SMILES)
### (### is ≥ 75%) | – | – | Cc1ccc(CN2CCCC23CCN(C(=O)OC(C(F)(F)F)C(F)(F)F)CC3)cc1C(F)(F)F [Example 180, 1,1,1,3,3,3-Hexafluoropropan-2-yl 1-(4-methyl-3-(trifluoromethyl)benzyl)-1,8-diazaspiro[4.5]decane-8-carboxylate]
– | # (# is < 25%) | # (# is < 25%) | CN1CCN(c2c(Cl)cccc2CN2CC3(CCN(C(=O)OC(C(F)(F)F)C(F)(F)F)CC3)CC2(C)C)CC1 [Example 189, 1,1,1,3,3,3-Hexafluoropropan-2-yl 2-(3-chloro-2-(4-methylpiperazin-1-yl)benzyl)-3,3-dimethyl-2,8-diazaspiro[4.5]decane-8-carboxylate]
– | # (# is < 25%) | # (# is < 25%) | CS(=O)(=O)C1CCN(c2cc(C(F)(F)F)ccc2CN2CCCC23CCN(C(=O)OC(C(F)(F)F)C(F)(F)F)CC3)C1 (stereo not shown) [Example 193, 1,1,1,3,3,3-Hexafluoropropan-2-yl 1-(2-(3-(methylsulfonyl)pyrrolidin-1-yl)-4-(trifluoromethyl)benzyl)-1,8-diazaspiro[4.5]decane-8-carboxylate]
– | # (# is < 25%) | # (# is < 25%) | O=C(O)C1CCN(Cc2cc(Cl)cc(CN3CCCC34CCN(C(=O)OC(C(F)(F)F)C(F)(F)F)CC4)c2)CC1 [Example 194, 1-(3-Chloro-5-((8-(((1,1,1,3,3,3-hexafluoropropan-2-yl)oxy)carbonyl)-1,8-diazaspiro[4.5]decan-1-yl)methyl)benzyl)piperidine-4-carboxylic acid]
– | # (# is < 25%) | # (# is < 25%) | O=C(O)C1CCN(c2cc(C(F)(F)F)ccc2CN2CCCC23CCN(C(=O)OC(C(F)(F)F)C(F)(F)F)CC3)C1 (stereo not shown) [Example 199]
– | # (# is < 25%) | # (# is < 25%) | O=C(O)C1COCCN1c1cc(CN2CCCC23CCN(C(=O)OC(C(F)(F)F)C(F)(F)F)CC3)cc(C(F)(F)F)c1 (stereo not shown) [Example 200]
– | # (# is < 25%) | # (# is < 25%) | O=C(O)[C@@H]1CCCN(c2cc(C(F)(F)F)ccc2CN2CCC3(CCN(C(=O)OC(C(F)(F)F)C(F)(F)F)CC3)C2)C1 [Example 211]
– | # (# is < 25%) | # (# is < 25%) | CC1(C(=O)O)CCCN(c2cc(C(F)(F)F)ccc2CN2CCC3(CCN(C(=O)OC(C(F)(F)F)C(F)(F)F)CC3)C2)C1 (stereo not shown) [Example 216]
– | # (# is < 25%) | # (# is < 25%) | CC1(C(=O)O)CCN(c2cc(C(F)(F)F)ccc2CN2CCCC23CCN(C(=O)OC(C(F)(F)F)C(F)(F)F)CC3)C1 (stereo not shown) [Example 230]
– | # (# is < 25%) | # (# is < 25%) | N#Cc1ccc(CN2CCCC23CCN(C(=O)OC(C(F)(F)F)C(F)(F)F)CC3)c(N2CCC(C(=O)O)CC2)c1 [Example 249]
– | # (# is < 25%) | # (# is < 25%) | O=C(O)C1CCN(Cc2cc(CN3CCCC34CCN(C(=O)OC(C(F)(F)F)C(F)(F)F)CC4)cc(C(F)(F)F)c2)C1 (stereo not shown) [Example 253]
– | # (# is < 25%) | # (# is < 25%) | O=C(O)C1CCN(Cc2cc(C(F)(F)F)ccc2CN2CCCC23CCN(C(=O)OC(C(F)(F)F)C(F)(F)F)CC3)C1 (stereo not shown) [Example 262]
– | # (# is < 25%) | # (# is < 25%) | O=C(O)C1CCN(Cc2cc(CN3CCCC34CCN(C(=O)OC(C(F)(F)F)C(F)(F)F)CC4)cc(OC(F)(F)F)c2)CC1 [Example 269]
– | # (# is < 25%) | # (# is < 25%) | O=C(O)C1CCN(Cc2cc(CN3CCCC34CCN(C(=O)OC(C(F)(F)F)C(F)(F)F)CC4)cc(OC(F)(F)F)c2)C1 (stereo not shown) [Example 270]
